Test results from US6825170B2, “6-O-acyl ketolide antibacterials” (Ortho-McNeil Pharmaceutical, Inc., priority 2001, dated 2004).
In brackets after ≈: the same amount, converted by molar mass.

Legend:
Assay in all cases: MIC, microdilution broth method (NCCLS)
Format in all cases: cell-based
Conditions in all cases: 35° C., 16-20 hours
[1] = tested on: H. influenzae ATCC49247
Method in brief: (§1)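 NCCLS microdilution method in cation-adjusted Mueller-Hinton broth, serial two-fold dilutions, final inoculum approximately 5×10^4 CFU/well. MIC read after 16-20 hours' incubation at 35° C.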

[2] = tested on: E. faecalis ATCC29212
Method in brief: as §1

[3] = tested on: S. aureus ATCC29213
Method in brief: as §1

[4] = tested on: S. pneumoniae ATCC49619
Method in brief: as §1

MIC (E: H. influenzae ATCC49247) [1]	MIC (C: E. faecalis ATCC29212) [2]	MIC (B: S. aureus ATCC29213) [3]	MIC (D: S. pneumoniae ATCC49619) [4]	SMILES
>16 µg/mL	4 µg/mL (≈ 5.72 µM)	>16 µg/mL	2 µg/mL (≈ 2.86 µM)	CC[C@H]1OC(=O)[C@H](C)C(=O)[C@H](C)[C@@H](O[C@@H]2O[C@H](C)C[C@H](N(C)C)[C@H]2O)[C@](C)(OC(=O)NNC(C)=O)C[C@@H](C)C(=O)[C@H](C)[C@H]2NC(=O)O[C@@]21C [Compound 812]
16 µg/mL (≈ 21 µM)	1 µg/mL (≈ 1.31 µM)	16 µg/mL (≈ 21 µM)	0.25 µg/mL (≈ 0.329 µM)	CC[C@H]1OC(=O)[C@H](C)C(=O)[C@H](C)[C@@H](O[C@@H]2O[C@H](C)C[C@H](N(C)C)[C@H]2O)[C@](C)(OC(=O)NNC(=O)c2ccccc2)C[C@@H](C)C(=O)[C@H](C)[C@H]2NC(=O)O[C@@]21C [Compound 813]
8 µg/mL (≈ 10.1 µM)	0.5 µg/mL (≈ 0.632 µM)	8 µg/mL (≈ 10.1 µM)	0.12 µg/mL (≈ 0.152 µM)	CC[C@H]1OC(=O)[C@H](C)C(=O)[C@H](C)[C@@H](O[C@@H]2O[C@H](C)C[C@H](N(C)C)[C@H]2O)[C@](C)(OC(=O)NNC(=O)OCc2ccccc2)C[C@@H](C)C(=O)[C@H](C)[C@H]2NC(=O)O[C@@]21C [Compound 814]
16 µg/mL (≈ 20.3 µM)	1 µg/mL (≈ 1.27 µM)	4 µg/mL (≈ 5.06 µM)	0.25 µg/mL (≈ 0.316 µM)	CC[C@H]1OC(=O)[C@H](C)C(=O)[C@H](C)[C@@H](O[C@@H]2O[C@H](C)C[C@H](N(C)C)[C@H]2O)[C@](C)(OC(=O)NNC(=O)N(C)c2ccccc2)C[C@@H](C)C(=O)[C@H](C)[C@H]2NC(=O)O[C@@]21C [Compound 815]
8 µg/mL (≈ 9.54 µM)	0.25 µg/mL (≈ 0.298 µM)	2 µg/mL (≈ 2.38 µM)	0.06 µg/mL (≈ 0.0715 µM)	CC[C@H]1OC(=O)[C@H](C)C(=O)[C@H](C)[C@@H](O[C@@H]2O[C@H](C)C[C@H](N(C)C)[C@H]2O)[C@](C)(OC(=O)N(C)NCc2ccc(-c3cnccn3)cc2)C[C@@H](C)C(=O)[C@H](C)[C@H]2NC(=O)O[C@@]21C [Compound 817]
8 µg/mL (≈ 9.55 µM)	0.25 µg/mL (≈ 0.298 µM)	4 µg/mL (≈ 4.77 µM)	0.06 µg/mL (≈ 0.0716 µM)	CC[C@H]1OC(=O)[C@H](C)C(=O)[C@H](C)[C@@H](O[C@@H]2O[C@H](C)C[C@H](N(C)C)[C@H]2O)[C@](C)(OC(=O)N(C)NCc2ccc(-c3ccccn3)cc2)C[C@@H](C)C(=O)[C@H](C)[C@H]2NC(=O)O[C@@]21C [Compound 818]
>16 µg/mL	1 µg/mL (≈ 1.17 µM)	16 µg/mL (≈ 18.8 µM)	0.25 µg/mL (≈ 0.293 µM)	CC[C@H]1OC(=O)[C@H](C)C(=O)[C@H](C)[C@@H](O[C@@H]2O[C@H](C)C[C@H](N(C)C)[C@H]2O)[C@](C)(OC(=O)N(C)N(C)Cc2ccc(-c3cnccn3)cc2)C[C@@H](C)C(=O)[C@H](C)[C@H]2NC(=O)O[C@@]21C [Compound 819]
8 µg/mL (≈ 9.38 µM)	0.25 µg/mL (≈ 0.293 µM)	1 µg/mL (≈ 1.17 µM)	0.06 µg/mL (≈ 0.0703 µM)	CC[C@H]1OC(=O)[C@H](C)C(=O)[C@H](C)[C@@H](O[C@@H]2O[C@H](C)C[C@H](N(C)C)[C@H]2O)[C@](C)(OC(=O)N(C)NCCc2ccc(-c3cnccn3)cc2)C[C@@H](C)C(=O)[C@H](C)[C@H]2NC(=O)O[C@@]21C [Compound 820]
16 µg/mL (≈ 18.5 µM)	0.5 µg/mL (≈ 0.577 µM)	2 µg/mL (≈ 2.31 µM)	0.12 µg/mL (≈ 0.138 µM)	CC[C@H]1OC(=O)[C@H](C)C(=O)[C@H](C)[C@@H](O[C@@H]2O[C@H](C)C[C@H](N(C)C)[C@H]2O)[C@](C)(OC(=O)N(C)N(C)CCc2ccc(-c3cnccn3)cc2)C[C@@H](C)C(=O)[C@H](C)[C@H]2NC(=O)O[C@@]21C [Compound 821]
16 µg/mL (≈ 18.6 µM)	1 µg/mL (≈ 1.16 µM)	2 µg/mL (≈ 2.32 µM)	0.12 µg/mL (≈ 0.139 µM)	CC[C@H]1OC(=O)[C@H](C)C(=O)[C@H](C)[C@@H](O[C@@H]2O[C@H](C)C[C@H](N(C)C)[C@H]2O)[C@](C)(OC(=O)Nn2ccc(-c3ccc(-c4ncccn4)cc3)c2)C[C@@H](C)C(=O)[C@H](C)[C@H]2NC(=O)O[C@@]21C [Compound 824]
4 µg/mL (≈ 5.16 µM)	0.5 µg/mL (≈ 0.645 µM)	1 µg/mL (≈ 1.29 µM)	0.12 µg/mL (≈ 0.155 µM)	CC[C@H]1OC(=O)[C@H](C)C(=O)[C@H](C)[C@@H](O[C@@H]2O[C@H](C)C[C@H](N(C)C)[C@H]2O)[C@](C)(OC(=O)SC/C=C/c2ccccc2)C[C@@H](C)C(=O)[C@H](C)[C@H]2NC(=O)O[C@@]21C [Compound 830]
8 µg/mL (≈ 10.7 µM)	0.25 µg/mL (≈ 0.334 µM)	2 µg/mL (≈ 2.67 µM)	0.06 µg/mL (≈ 0.0801 µM)	CC[C@H]1OC(=O)[C@H](C)C(=O)[C@H](C)[C@@H](O[C@@H]2O[C@H](C)C[C@H](N(C)C)[C@H]2O)[C@](C)(OC(=O)SCc2ccccc2)C[C@@H](C)C(=O)[C@H](C)[C@H]2NC(=O)O[C@@]21C [Compound 831]
8 µg/mL (≈ 11.4 µM)	0.5 µg/mL (≈ 0.715 µM)	4 µg/mL (≈ 5.72 µM)	0.25 µg/mL (≈ 0.358 µM)	C=CCSC(=O)O[C@]1(C)C[C@@H](C)C(=O)[C@H](C)[C@H]2NC(=O)O[C@]2(C)[C@@H](CC)OC(=O)[C@H](C)C(=O)[C@H](C)[C@H]1O[C@@H]1O[C@H](C)C[C@H](N(C)C)[C@H]1O [Compound 832]

SMILES	MIC (E: H. influenzae ATCC49247) [1]	MIC (C: E. faecalis ATCC29212) [2]	MIC (B: S. aureus ATCC29213) [3]	MIC (D: S. pneumoniae ATCC49619) [4]
CC[C@H]1OC(=O)[C@H](C)C(=O)[C@H](C)[C@@H](O[C@@H]2O[C@H](C)C[C@H](N(C)C)[C@H]2O)[C@](C)(OC(=O)NN2CCCCC2)C[C@@H](C)C(=O)[C@H](C)[C@H]2NC(=O)O[C@@]21C [Compound 816]	16 µg/mL (≈ 22.1 µM)	1 µg/mL (≈ 1.38 µM)	16 µg/mL (≈ 22.1 µM)	0.5 µg/mL (≈ 0.69 µM)
CC[C@H]1OC(=O)[C@H](C)C(=O)[C@H](C)[C@@H](O[C@@H]2O[C@H](C)C[C@H](N(C)C)[C@H]2O)[C@](C)(OC(=O)NN=Cc2ccc(-c3ncccn3)cc2)C[C@@H](C)C(=O)[C@H](C)[C@H]2NC(=O)O[C@@]21C [Compound 825]	16 µg/mL (≈ 19.4 µM)	0.5 µg/mL (≈ 0.608 µM)	4 µg/mL (≈ 4.86 µM)	0.12 µg/mL (≈ 0.146 µM)
CC[C@H]1OC(=O)[C@H](C)C(=O)[C@H](C)[C@@H](O[C@@H]2O[C@H](C)C[C@H](N(C)C)[C@H]2O)[C@](C)(OC(=O)NN=CCc2ccc(-c3ncccn3)cc2)C[C@@H](C)C(=O)[C@H](C)[C@H]2NC(=O)O[C@@]21C [Compound 826]	8 µg/mL (≈ 9.56 µM)	2 µg/mL (≈ 2.39 µM)	8 µg/mL (≈ 9.56 µM)	0.25 µg/mL (≈ 0.299 µM)
CC[C@H]1OC(=O)[C@H](C)C(=O)[C@H](C)[C@@H](O[C@@H]2O[C@H](C)C[C@H](N(C)C)[C@H]2O)[C@](C)(OC(=O)NN=C/C=C/c2ccc(-c3ncccn3)cc2)C[C@@H](C)C(=O)[C@H](C)[C@H]2NC(=O)O[C@@]21C [Compound 827]	8 µg/mL (≈ 9.42 µM)	1 µg/mL (≈ 1.18 µM)	1 µg/mL (≈ 1.18 µM)	0.12 µg/mL (≈ 0.141 µM)
